8 molecules from US20170027172A1, “USE OF SUBSTITUTE OXO TETRAHYDROQUINOLINE SULFONAMIDES OR SALTS THEREOF FOR RAISING STRESS TOLERANCE OF PLANTS” (BAYER CROPSCIENCE AKTIENGESELLSCHAFT, priority 2014, published 2017) can be followed below.

The target of assay [1] is T1, phosphatase ABI1 via the co-regulator RCAR11/PYR1 (Arabidopsis thaliana, UniProt O49686+P49597).
T1 sequence (O49686 1-191): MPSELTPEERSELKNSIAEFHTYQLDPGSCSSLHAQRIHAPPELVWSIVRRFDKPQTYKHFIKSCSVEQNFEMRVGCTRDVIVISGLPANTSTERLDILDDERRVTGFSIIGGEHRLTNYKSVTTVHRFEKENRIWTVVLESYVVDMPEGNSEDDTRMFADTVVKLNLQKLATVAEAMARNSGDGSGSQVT
T1 sequence (P49597 1-434): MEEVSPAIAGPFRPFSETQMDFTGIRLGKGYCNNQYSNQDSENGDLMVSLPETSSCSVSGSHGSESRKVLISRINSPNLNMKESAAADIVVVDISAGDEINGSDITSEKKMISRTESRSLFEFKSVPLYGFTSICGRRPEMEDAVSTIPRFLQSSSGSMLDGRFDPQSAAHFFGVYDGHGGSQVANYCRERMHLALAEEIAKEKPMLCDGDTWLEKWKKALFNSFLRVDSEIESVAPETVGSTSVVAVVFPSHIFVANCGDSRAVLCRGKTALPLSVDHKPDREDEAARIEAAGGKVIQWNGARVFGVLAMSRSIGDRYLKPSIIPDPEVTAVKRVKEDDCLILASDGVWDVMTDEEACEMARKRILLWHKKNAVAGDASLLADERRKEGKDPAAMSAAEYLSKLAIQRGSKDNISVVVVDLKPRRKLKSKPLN
Description: In vitro inhibition of the phosphatase ABI1 via the co-regulator RCAR11/PYR1, MUP dephosphorylation. Format: biochemical. Further details: dose or concentration left out as unconfirmed. The settings on record: in a solution of DMSO and water; fluorescence at 460 nm. The procedure, abridged:
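Arabidopsis ABI1 (0.15 μg/well) with RCAR11/PYR1 (0.30 μg/well) in Tris-HCl pH 8, NaCl, MnCl2, DTT, Tween20; MUP substrate, 20 min at 35 °C, fluorescence ex 340/em 460 nm. Compounds tested at 5 mM in DMSO/water, optionally pre-treated with porcine liver esterase; inhibition banded ≥90/70/50/30%.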

In assay [2] the test system is Triticum aestivum. Description: Drought stress greenhouse test Part B, visual scoring vs stressed control plants. Format: in vivo. The note with it: efficacy range of 2-3 pots. On the procedure:
(§1) Seeds of monocotyledonous and dicotyledonous crop plants were sown in sandy loam in plastic pots, covered with soil or sand and cultivated in a greenhouse under good growth conditions. The trial plants were treated at the early leaf stage (BBCH10-BBCH13). To assure uniform water supply before commencement of stress, the potted plants were supplied with water by dam irrigation prior to substance application.
(§2) The inventive compounds formulated in the form of wettable powders (WP) were sprayed onto the green parts of the plants as an aqueous suspension at an equivalent water application rate of 600 l/ha with addition of 0.2% wetting agent (e.g. agrotin). Substance application was followed immediately by stress treatment of the plants.
(§3) Drought stress was induced by gradual drying out under the following conditions:
(§4) “Day”: 14 hours with illumination at 26-30° C. “Night”: 10 hours without illumination at 18-20° C.
(§5) The duration of the respective stress phases was guided mainly by the condition of the stressed control plants. It was ended (by re-irrigating and transfer to a greenhouse with good growth conditions) as soon as irreversible damage was observed on the stressed control plants.
The end of the stress phase was followed by an about 4-7-day recovery phase, during which the plants were once again kept under good growth conditions in a greenhouse. The duration of the recovery phase was guided mainly by when the trial plants had attained a state which enabled visual scoring of potential effects, and is therefore variable.
(§6) Once this juncture had been reached, the appearance of the plants treated with test substances was recorded in comparison to the stressed control plants by the following categories:
For each substance and dosage, 2-3 pots were treated and evaluated.
(§7) BRSNS=Brassica napus TRZAS=Triticum aestivum

For assay [3], the system named is Brassica napus. Described as above. Format: in vivo. Further details: key: 0: no effect; 10: slight positive effect; 20: clear positive effect; 30: strong positive effect. The settings on record: efficacy range of 2-3 pots. On the procedure:
as §1, §2, §3, §4
The duration of the respective stress phases was guided mainly by the condition of the stressed control plants. […]
as §6
For each substance and dosage, 2-3 pots were treated and evaluated. […]

Assay [4] has as its system Triticum aestivum. The assay can be described thus: Drought stress greenhouse test Part A, visual scoring vs stressed control plants. It counts as in vivo. Further details: key: 0: no effect; 10: slight positive effect; 20: clear positive effect; 30: strong positive effect. The settings on record: average score of 3 pots. The procedure:
as §1, §2, §3
(§8) “Day”: 14 hours with illumination at ˜26-30° C. “Night”: 10 hours without illumination at ˜18-20° C.
as §5
(§9) The end of the stress phase was followed by an about 4-7-day recovery phase, during which the plants were once again kept under good growth conditions in a greenhouse. The duration of the recovery phase was guided mainly by when the trial plants had attained a state which enabled visual scoring of potential effects, and was therefore variable.
as §6
(§10) In order to rule out any influence on the effects observed by any fungicidal or insecticidal action of the test compounds, it was additionally ensured that the tests proceeded without fungal infection or insect infestation.
(§11) In each test, for each crop and dosage, plants in 3 pots were treated and evaluated separately. The values reported in Tables A-1 to A-2 below for the effects obtained are averages from the scores obtained.
as §7

For assay [5], the system named is Brassica napus. Described as above. It counts as in vivo. Further details: key: 0: no effect; 10: slight positive effect; 20: clear positive effect; 30: strong positive effect. The note with it: spray application 250 g/ha, average score of 3 pots. On the procedure:
as §1, §2, §3, §8, §5, §9, §6, §10, §11, §7

Assay [6] has as its system Brassica napus. Description: Drought stress greenhouse test Part C, visual scoring vs stressed control plants. Also on record: key: 0: no effect; 10: slight positive effect; 20: clear positive effect; 30: strong positive effect. The settings on record: spray application 250 g/ha, efficacy range of 3-4 pots. It counts as in vivo. The procedure: Seeds of monocotyledonous and dicotyledonous crop plants were sown in sandy loam in plastic or wood-fiber pots, covered with soil or sand and cultivated in a greenhouse under good growth conditions. The trial plants were treated at the early leaf stage (BBCH10-BBCH13). To assure uniform water supply before commencement of stress, the potted plants were supplied with water by dam irrigation prior to substance application. The inventive compounds were first formulated as wettable powders (WP) or dissolved in a solvent mixture. The further dilution was effected with water supplemented with 0.2% wetting agent (e.g. agrotin). The finished spray liquor was sprayed onto the green parts of the plant at an equivalent water application rate of 600 l/ha. Substance application was followed immediately by stress treatment of the plants. For this purpose, the wood-fiber pots were transferred in plastic inserts in order to prevent them from subsequently drying out too quickly. Drought stress was induced by gradual drying out under the following conditions: “Day”: 14 hours with illumination at 26-30° C. […] Once this juncture had been reached, the appearance of the plants treated with test substances was recorded in comparison to the stressed control plants by the following categories: [table] For each substance and dosage, 3-4 pots were treated and evaluated. […]

With `Cc1ccc(CS(=O)(=O)Nc2ccc3c(c2)CCC(=O)N3CC2CC2)cc1F` [A19-357, N-[1-(Cyclopropylmethyl)-2-oxo-1,2,3,4-tetrahydroquinolin-6-yl]-1-(3-fluoro-4-methylphenyl)methanesulfonamide], the ABI1 inhibition entry in assay [1] is recorded as “++++ (inhibition≧90%)”. Further, in the assay with Triticum aestivum [2] (spray application 250 g/ha), the “Effect (TRZAS)” value is recorded as 10-20.
Regarding `O=C1CCc2cc(NS(=O)(=O)Cc3cc(F)cc(F)c3)ccc2N1CC1CC1` [A19-164], the “Effect (BRSNS)” value in the assay with Brassica napus [3] (spray application 2.5 g/ha) amounted to 20. In addition, the ABI1 inhibition entry in assay [1] is listed as “+++ (90%>inhibition≧70%)”.
As for `O=C1CCc2cc(NS(=O)(=O)Cc3ccc(F)cc3)ccc2N1CC1CC1` [A19-158], in assay [1], the ABI1 inhibition result is listed as “++++ (inhibition≧90%)”. Moreover, the “Effect (TRZAS)” value in the assay on Triticum aestivum [4] (spray application 25 g/ha) and in the assay with Triticum aestivum [4] (spray application 250 g/ha) was 20-30 throughout. The “Effect (BRSNS)” value in the assay on Brassica napus [5] was 20.
For `N#CCN1C(=O)CCc2cc(NS(=O)(=O)Cc3ccc(Br)cc3)ccc21` [A16-172], the “Effect (BRSNS)” value with Brassica napus [3] (spray application 25 g/ha) came to 20. Besides, the “Effect (TRZAS)” value with Triticum aestivum [2] (spray application 25 g/ha) is recorded as 10-20.
Regarding `COCN1C(=O)CCc2cc(NS(=O)(=O)Cc3ccc(C(F)(F)F)cc3)ccc21` [A49-178], in assay [1], the ABI1 inhibition entry was “++++ (inhibition≧90%)”. Moreover, the “Effect (BRSNS)” value in the assay with Brassica napus [6] was found to be 20.
In the case of `O=C1CCc2cc(NS(=O)(=O)Cc3ccc(F)cc3)ccc2N1CC(F)F` [A1-158], the ABI1 inhibition result in assay [1] is “+++ (90%>inhibition≧70%)”. For the same molecule, the “Effect (TRZAS)” value with Triticum aestivum [2] (spray application 250 g/ha) was 10-20.
Taken in the same sequence, the figures for `N#Cc1ccc(CS(=O)(=O)Nc2ccc3c(c2)CCC(=O)N3CC2CC2)cc1` [A19-181] were “++++ (inhibition≧90%)” and 10-20.
In the case of `O=C1CCc2cc(NS(=O)(=O)Cc3ccc(C(F)(F)F)cc3)ccc2N1CC1CC1` [A19-178], the ABI1 inhibition entry in assay [1] was “++++ (inhibition≧90%)”. Besides, the “Effect (BRSNS)” value in the assay on Brassica napus [5] was 20.
